These results are taken from ChEMBL document CHEMBL3044743, “Synthesis and Phytotoxic Activities of N-Substituted Phenyl Isothiazolone Derivatives” (J Pestic Sci, 2003).

In assay [1] the test system is Scenedesmus acutus. The assay can be described thus: Phytotoxicity against Scenedesmus acutus assessed as ethane production level per ml of packed cell volume at 10 uM after 20 hr by gas chromatography. The format is functional.
Assay [2] has as its target T1, Protoporphyrinogen IX oxidase (Zea mays) (UniProt Q9FYV8).
T1 sequence (whole entry): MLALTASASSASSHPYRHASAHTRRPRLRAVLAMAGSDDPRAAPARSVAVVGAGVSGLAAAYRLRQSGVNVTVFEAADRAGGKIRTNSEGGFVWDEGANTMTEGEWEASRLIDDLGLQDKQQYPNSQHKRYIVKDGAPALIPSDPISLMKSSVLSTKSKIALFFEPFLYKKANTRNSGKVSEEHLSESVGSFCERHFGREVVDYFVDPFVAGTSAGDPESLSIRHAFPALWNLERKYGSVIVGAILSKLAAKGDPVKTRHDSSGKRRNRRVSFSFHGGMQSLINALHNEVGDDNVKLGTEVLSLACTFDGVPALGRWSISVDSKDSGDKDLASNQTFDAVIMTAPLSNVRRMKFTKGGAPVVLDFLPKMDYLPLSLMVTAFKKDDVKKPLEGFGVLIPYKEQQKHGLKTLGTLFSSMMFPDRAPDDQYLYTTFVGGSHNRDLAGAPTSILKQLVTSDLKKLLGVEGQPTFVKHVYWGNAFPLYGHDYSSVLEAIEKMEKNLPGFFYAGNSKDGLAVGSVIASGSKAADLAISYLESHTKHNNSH
Nature of the assay: Inhibition of protoporphyrinogen IX oxidase in Zea mays cv. DK212MF (maize) seedlings assessed as protoporphyrin IX formation at 10 uM after 5 min by spectrophotometry.

Each structure is given as a SMILES string.

On to `O=c1c2c(sn1-c1cc(OC3CCCC3)c(Cl)cc1F)CCCC2`, for which the Activity in assay [1] is 0 nmol/mL. On to `O=c1c2c([s+]([O-])n1-c1cc(OC3CCCC3)c(Cl)cc1F)CCCC2` (stereo not drawn), for which, in assay [1], the Activity amounted to 0 nmol/mL. Broadly, the inhibition is the percentage by which the read-out fell short of the control. In the case of `O=c1c2c(sn1-c1ccc(Cl)cc1)CCCC2`, the Activity in assay [1] came out at 7 nmol/mL. Further, the inhibition in assay [2] is 11.2%. Take `O=c1c2c([s+]([O-])n1-c1ccc(Cl)cc1)CCCC2` (stereo not drawn): the Activity in assay [1] is 3 nmol/mL. For `O=C1C2=C(CCCC2)C(=O)N1c1cc(OC2CCCC2)c(Cl)cc1F`, in assay [1], the Activity was 12 nmol/mL.

Turning to `CC(C)OC(=O)c1cc(N2C(=O)C3=C(CCCC3)S2(=O)=O)ccc1Cl`, the Activity in assay [1] turned out to be 12 nmol/mL. Consider `O=C1C2=C(CCCC2)S(=O)(=O)N1c1cc(OC2CCCC2)c(Cl)cc1F`, for which the Activity in assay [1] stood at 3 nmol/mL. Take `CC(C)OC(=O)c1cc(-n2c(=O)c3c([s+]2[O-])CCCC3)ccc1Cl` (stereo not drawn): in assay [1], the Activity was determined as 3 nmol/mL.

Take `O=C1C2=C(CCCC2)S(=O)(=O)N1c1ccc(Cl)cc1`: the Activity in assay [1] is 12 nmol/mL. Regarding `CC(C)OC(=O)c1cc(-n2sc3c(c2=O)CCCC3)ccc1Cl`, the Activity in assay [1] amounted to 3 nmol/mL. In the case of `CC(C)OC(=O)c1cc(N2C(=O)C3=C(CCCC3)C2=O)ccc1Cl`, the Activity in assay [1] was determined as 12 nmol/mL. Take `O=C1C2=C(CCCC2)C(=O)N1c1ccc(Cl)cc1` [CHLOROPHTHALIUM]: the Activity in assay [1] came out at 12 nmol/mL.
